Paper PMC7948494, “Structure of an ancestral ADP-dependent kinase with fructose-6P reveals key residues for binding, catalysis, and ligand-induced conformational changes” (The Journal of Biological Chemistry, 2020)
Where a chain is given by its changes, count along the chain named.

How the values were obtained:
AncMsPFK [1] = target: T1, AncMsPFK (synthetic construct, UniProt Z9Y5W3ZEF0); experiment: X-ray crystallography, […] Å; format: binding; conditions: closed conformation
T1 construct: synthetic gene in pET-15, N-terminal polyhistidine tag, E. coli BL21; heat step and Ni-Sepharose; 490 residues expected, one molecule per asymmetric unit
T1 sequence (Z9Y5W3ZEF0 22-511): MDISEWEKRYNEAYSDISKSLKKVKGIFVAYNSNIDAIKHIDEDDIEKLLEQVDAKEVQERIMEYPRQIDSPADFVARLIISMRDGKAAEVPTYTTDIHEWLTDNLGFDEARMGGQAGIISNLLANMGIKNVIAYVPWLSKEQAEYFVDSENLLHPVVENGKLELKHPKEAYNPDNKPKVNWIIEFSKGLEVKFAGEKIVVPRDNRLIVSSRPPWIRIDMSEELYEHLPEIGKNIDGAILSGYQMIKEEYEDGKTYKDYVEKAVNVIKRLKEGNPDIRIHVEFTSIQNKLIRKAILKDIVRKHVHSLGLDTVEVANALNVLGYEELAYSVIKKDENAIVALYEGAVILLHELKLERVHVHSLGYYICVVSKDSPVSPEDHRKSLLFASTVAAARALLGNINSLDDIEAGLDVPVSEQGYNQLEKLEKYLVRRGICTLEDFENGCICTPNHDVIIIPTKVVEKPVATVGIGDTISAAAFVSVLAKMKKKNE

AncMsPFK [2] = target: T1, AncMsPFK; experiment: coupled NADH oxidation assay, […] nm; format: biochemical; conditions: 1 mM ADP, 2 mM MgCl2, 100 mM Pipes pH 6.5, 25 °C
AncMsPFK [3] = target: T2, AncMsPFK (synthetic construct, UniProt Z9Y5W3ZEF0, E111A); experiment: coupled NADH oxidation assay, […] nm; format: biochemical; conditions: 1 mM ADP, 2 mM MgCl2, 100 mM Pipes pH 6.5, 25 °C; substrate inhibition fit
T2 construct: synthetic gene in pET-15, N-terminal polyhistidine tag, E. coli BL21; heat step and Ni-Sepharose; 490 residues expected, one molecule per asymmetric unit
T2 sequence (Z9Y5W3ZEF0 22-511 E111A): T1 sequence (Z9Y5W3ZEF0 22-511) with E90A

| F6P / KM mM (AncMsPFK [2]) | F6P / KM mM (AncMsPFK [3]) | Compound | X-ray crystallography, 3.12 Å (AncMsPFK [1]; ternary complex with F6P and Mg2+, nucleotide site) | X-ray crystallography, 3.12 Å (AncMsPFK [1]; ternary complex with Mg-ADPβS, active site) |
| --- | --- | --- | --- | --- |
|  |  | Nc1ncnc2c1ncn2[C@@H]1O[C@H](COP(=O)(O)OP(=O)(O)S)[C@@H](O)[C@H]1O (stereo partly shown) [ADPβS] | The structure of the AncMsPFK in complex with F6P-Mg-ADPβS was solved by molecular replacement |  |
| 0.014 ± 1.5 × 10^−3 mM | 0.09 ± 9.6 × 10^−3 mM | O=P(O)(O)OC[C@H]1OC(O)(CO)[C@@H](O)[C@@H]1O (stereo partly shown) [F6P] |  | The structure of the AncMsPFK in complex with F6P-Mg-ADPβS was solved by molecular replacement |
